One block for each substance: values may come before it. Where no end group is shown, it is not given here.
What was measured:
[1] = system: metacarpals; assay: Metacarpal culture ex vivo (calcein incorporated area, length, width); type: cell-based, mouse; conditions: 10 days, IGFBP2 200 ng/ml, peptides 2 μg/ml, vs PBS; for calcein incorporated area of metacarpals: IGF-1 20 ng/ml
Protocol: FIG. 2. The heparin binding domain of IGFBP2 enhances periosteal expansion of metacarpals ex vivo. Metacarpals were collected from day 1 male mouse, and treated with osteogenic media with IGFBP2 (200 ng/ml) or the heparin-binding domain peptide (HBD-peptide) (2 μg/ml) in the presence or absence of IGF-1 (20 ng/ml) for 10 days. Bones were labeled with calcein (500 ng/ml) and calcein incorporated area was visualized (a) and longitudinal length of calcein incorporated area was quantified (b). Alcian blue and Von Kossa double staining was performed (c) and length and width of metacarpals were quantified (d). Statistical difference was analyzed by ANOVA followed by Bonferroni post-hoc test. Figures shown represent at least 3 independent experiments. Values are expressed as the mean±SEM (n=3-4). ^a; <0.05 vs PBS, ^b; <0.01 vs PBS, ^c; <0.001 vs PBS, ^d; <0.01 vs HBD, ^e; <0.05 vs IGF-I, ^f; <0.05 vs HBD.
Metacarpals were isolated from Igfbp2^−/− mice at 1-day old and incubated in DMEM containing 0.5% BSA, 50 μg/ml ascorbic acid and 1 mM β-glycerol phosphate for 10 days^54. Stimulants were added to culture media from day 1. At day 10, metacarpals were incubated in media containing calcein (500 ng/ml) for 2 hours for staining of calcium deposition, and images were obtained. Then, bones were fixed with 4% PFA, embedded in paraffin, and processed for Alcian blue and von Kossa double staining.

[2] = system: β-catenin; assay: Western blot analysis of β-catenin (cytosolic accumulation, pSer552); type: cell-based, mouse
Protocol: FIG. 6. The heparin-binding domain of IGFBP-2 stimulates cytosolic accumulation and Ser552 phosphorylation of β-catenin by IGF-I. a, MC3T3-E1 cells were serum-starved over-night and treated with IGF-I at the indicated concentration for 6 hours. Expression of β-catenin and α-actin was analyzed by Western blot analysis with membrane and cytosolic fraction. b, Igfbp2^−/− calvarial osteoblasts (COBs) were serum-starved over-night with PBS or pegylated heparin-binding domain peptide (PEG-HBD) and then treated with IGF-I (100 ng/ml) for 6 hours. Expression of β-catenin was analyzed by Western blot analysis with cytosolic fraction and quantified by normalizing to α-actin (n=3). c, MC3T3-E1 cells were serum-starved over-night and treated with IGF-I (100 ng/ml) for 15 min. Expression of pSer552-β-catenin, β-catenin, pSer473-Akt, Akt and α-actin was analyzed by Western blot analysis with whole cell lysates. d, Igfbp2^−/− COBs were serum-starved over-night with PBS or PEG-HBD and then treated with IGF-I (100 ng/ml) for 15 min. Expression of pSer552-β-catenin was analyzed by Western blot analysis with whole cell lysates and quantified by normalizing to β-catenin (n=3). Figures shown represent at least 3 independent experiments. Values are expressed as the mean±SEM. Statistical difference was analyzed by Student's t-test. *; <0.001, **; <0.01, ^†; <0.05. […]

[3] = system: Igfbp2−/− COBs and BMSCs; assay: In vitro osteoblastogenesis of calvarial osteoblasts and bone marrow stromal cells (ALP, Alizarin Red staining); type: cell-based, mouse; conditions: 2 μg/ml, osteogenic media
Protocol: FIG. 1. The heparin-binding domain of IGFBP2 enhances osteoblastogenesis in vitro. a. Von Kossa staining was performed using tibia from 8 weeks old Igfbp2^+/+ and Igfbp2^−/− male mouse. b. Calvarial osteoblasts (COBs) were harvested from day 7 old male Igfbp2^+/+ and Igfbp2^−/− male mouse, and treated with osteogenic media in the presence of 2.5% FCS. At day 7, alkaline phosphatase (ALP) staining was performed. c and d. COBs and Bone marrow stromal cells (BMSCs) from Igfbp2^−/− mouse were treated with osteogenic media with pegylated heparin-binding domain peptide (PEG-HBD) in the presence of 10% FCS. ALP staining (day 7) and Alizarin Red staining (day 14) were performed (c). RNA was isolated at day 14 from BMSCs and expression of ALP, osteocalcin (OC) and Runx2 was analyzed by real-time PCR. Figures shown represent at least 3 independent experiments (n=3). Statistical difference was analyzed by student's t test. *; p<0.05.
FIG. 7. […] Igfbp2^−/− calvarial osteoblasts (COBs) were cultured with osteogenic media with PBS, control peptide (2 μg/ml) or heparin binding domain peptide (HBD-peptide) (2 μg/ml). Osteoblastogenesis was evaluated by Alizarin Red staining.
Neonatal calvarial osteoblasts were collected from 7-10 day old mice as previously described^53. Briefly, calvariae were digested 5 times with collagenase P and Trypsin. Cells released from digests 2 through 5 were collected as primary calvarial osteoblasts, and maintained in DMEM supplemented with 10% FCS and non-essential amino acids. Osteoblastogenesis of primary calvarial osteoblasts was carried out by treating cells with 4 mM β-glycerophosphate and 50 μg/ml ascorbic acid in αMEM. Bone marrow stromal cells (BMSCs) were harvested from femurs and tibias of 8 weeks old mice as described previously^10. Osteoblastogenesis of BMSCs was induced by the treatment with osteogenic media consisting of αMEM containing 10% FCS, 8 mM β-glycerophosphate, and 50 μg/ml ascorbic acid.

[4] = system: cells derived from bone marrow aspirates or calvaria; assay: Osteoblast differentiation, alkaline phosphatase and von kossa stain; type: cell-based, mouse
Protocol: For measurement of osteoblast differentiation, the cells are also derived from the same bone marrow aspirates. However in some experiments they were derived from calvaria obtained from newborn animals. Cells are plated in 6 well plates at […] in alpha MEM with 10% fetal bovine serum. Media was changed on day 1 and 3. At day 3 the cells received differentiation medium, which is alphaMEM containing 10% fetal calf serum, 8 mM glycerol phosphate and 50 ug/ml ascorbic acid. Media subsequently is changed every 2 days until termination of the experiment, generally at 18 days. In some experiments fetal calf serum concentration was lowered to either 5% or 2%. IGFBP-2 200 ng/ml was added to some cultures or the IGFBP-2 peptide at concentrations between 2 ng/ml and 2 mcg/ml. To determine osteoblast differentiation, the cells were fixed with 4% paraformaldehyde and then stained for alkaline phosphatase. The cells were then counterstained with von kossa stain to detect mineralization.

[5] = system: IGFBP-2−/− mice; assay: In vivo rescue of the bone phenotype in IGFBP-2−/− mice (micro CT); set-up: species or system mouse
Protocol: IGFBP-2−/− mice have reduced bone mineral density, reduced cortical and trabecular thickness and reduced bone turnover, both formation and resorption. To determine if the 13 amino acid peptide was active systemically, a pegylated preparation was prepared in order to extend halflife. This preparation was then injected into the mice. Mice between the ages of 16 and 20 weeks were utilized. These mice are known to have a major bone phenotype. The peptide was injected at a dose of 50 mcg of peptide plus conjugate, that is the total molecular weight of PEG plus the peptide, which is approximately 23,000 molecular weight was injected intraperitoneally five days per week for three weeks. Six mice were injected in each group. The major measure of bone density is the bone volume over total volume as calculated by micro CT analysis. This measures the amount of total bone within a given space. Control animals receive PBS injections.

[6] = system: adherent macrophages; assay: Osteoclast differentiation, tartrate resistant acid phosphatase staining; type: cell-based, mouse; conditions: osteoclast differentiation
Excerpt: The method for osteoclast differentiation is as follows: Balb/c mice in which the IGFBP-2 gene had been deleted (see V. DeMambro et al, Endocrinology, 149(5): 2051-2061 (2007)) were anesthetized and sacrificed using cervical dislocation. The femurs from each mouse were dissected free of soft tissue and the bone marrow aspirated by needle puncture. Cells were removed sterile and resuspended in DMEM with 10% fetal calf serum. The cells were centrifuged at 700×g and the cell pellet resuspended in medium and plated in 24 well plates at a concentration of 5000 cells/cm^2. The plates that are used are low adherence plates that have no additives to facilitate cell adherence. Under these conditions macrophages will adhere while other cells will not. The media is supplemented with mCSF 20 ng/ml. After 3 days the cells are removed from the plate and the adherent macrophages are exposed to fresh media containing 10% FBS and mCSF. This is repeated again after 3 days and then after an additional 3 days cells are trypsinized and replated in fresh plates at 6×10^4 cells/cm. At this time RANK ligand, 50 ng/ml, is added, although in some experiments concentrations as low as 10 ng/ml were utilized. Medium is changed at 3 and 6 days and on day 7 cells are stained for tartrate resistant acid phosphatase, a marker of osteoclast differentiation. IGFBP-2 was added at concentrations between 50 ng/ml and 500 mcg/ml. The peptide was added at 20 or 200 ng/ml.
For tartrate resistant acid phosphatase staining, a 1% solution is prepared and incubated with the cells for 30 min at room temperature. Cultures are then washed and cell number determined by manual counting.

[7] = system: PTEN; assay: Western blot analysis of PTEN expression; type: cell-based, mouse; conditions: primary calvarial osteoblasts, overnight treatment
Protocol: FIG. 5. The heparin-binding domain of IGFBP2 suppresses PTEN expression. a and b, Igfbp2^−/− calvarial osteoblasts (COBs) were isolated, and treated with PBS, IGFBP-2 or pegylated heparin-binding domain peptide (PEG-HBD) in MEMα containing 0.1% BSA overnight. Whole cell lysate was collected and expression of PTEN and α-actin was analyzed by Western blot analysis. Expression levels of PTEN were quantified by normalizing to the expression levels of α-actin. c and d. COBs pre-incubated with PBS, IGFBP-2 or PEG-HBD overnight were treated with IGF-I (100 ng/ml) for 15 minutes. Whole cell lysate was collected and expression of pSer473-Akt and Akt was analyzed by Western blot analysis. Expression levels of pSer473-Akt were quantified by normalizing to the expression levels of Akt. Figures shown represent at least 3 independent experiments. Values are expressed as the mean±SEM (n=3-4). Statistical difference was analyzed by Student's t-test. *; <0.001, **; <0.01, ^†; <0.05.
FIG. 9. […] Igfbp2^+/+ calvarial osteoblasts were treated with PBS, control peptide, or heparin-binding domain peptide (HBD-peptide) overnight, and whole cell lysate was collected. PTEN expression was analyzed using western blot analysis (a), and quantitative analysis was performed (b). Values were expressed as the mean±SEM (n=3). Statistical significance was analyzed by ANOVA followed by Bonferroni post-hoc test. ^a; p<0.01 vs. PBS, ^b; p<0.01 vs. control peptide.
To prepare whole cell lysates, cells were solubilized in RIPA buffer^55. For cytosolic fraction, cells were solubilized with hypotonic buffer containing protease and phosphatase inhibitors (10 mM Tris, 0.2 mM MgCl2, pH 7.4) and kept on ice for 10 min. Cell lysates were mixed with sucrose buffer (final concentration; 25 mM Sucrose, 0.1 mM EDTA) and centrifuged at 20,000×g for 1 hour. Supernatant was used as cytosolic fraction. To prepare the membrane fraction, cells were solubilized with PBS containing protease and phosphatase inhibitors. The lysates were frozen at −80° C. for 1 h and thawed at room temperature. After three cycles, they were centrifuged at 13,000×g for 25 min. The pellet was suspended with membrane protein isolation buffer (20 mM Tris-HCl; 150 mM NaCl; 1 mM EDTA; 1 mM EGTA; and 1% Triton X-100, pH 7.5) containing protease and phosphatase inhibitors. Protein concentration was assessed by BCA protein assay kit (Thermo Scientific) and equal amounts of sample were separated by SDS-PAGE and transferred electrophoretically to nitrocellulose membranes. Membranes were blocked in 5% BSA in Tris-buffered saline. […]

[8] = 50 mcg i.p. five days per week for three weeks

Substance: IGF-I: insulin-like growth factor-I
calcein incorporated area of metacarpals [1]: stimulated expansion of calcein incorporated area | Ser552 phosphorylation of β-catenin ([2]; IGF-I 100 ng/ml 15 min, MC3T3-E1 cells (IGF-I alone) or Igfbp2−/− COBs pre-treated with PEG-HBD): stimulated β-catenin phosphorylation on Ser552 | cytosolic accumulation of β-catenin ([2]; IGF-I 6 hours, MC3T3-E1 cells (IGF-I alone) or Igfbp2−/− COBs pre-treated with PEG-HBD vs PBS): enhanced cytosolic accumulation of β-catenin

Substance: RKGFYKRKQCKPSRGKRK (IGFBP-5 heparin binding domain-containing peptide sequence) [HBD-BP5, reference compound]
calcein incorporated area of metacarpals [1]: did not have any effect | width (and length) of metacarpals [1]: did not have any effect | mineralization of Igfbp2−/− COBs (Alizarin Red) compared to PBS [3]: did not show any enhancement of mineralization

biologic activity compared to the nonpegylated peptide [6]: equal biologic activity
Substance: pegylated 13 amino acid peptide: peptide of SEQ ID NO: 1 N-terminally pegylated with methoxyPEG propinaldehyde molecular weight 20 kDa, 1 PEG per peptide ({methoxyPEG 20 kDa}-KHHLGLEEPKKLR)
biologic activity compared to the nonpegylated peptide [4]: equal biologic activity | PTEN in bones (biochemical analysis) [5, 8]: downregulated | cortical thickness [5, 8]: substantially increased | rescue of bone phenotype relative to normal [5, 8]: ≤ 70% | BV/TV (bone volume over total volume) ([5]; 50 mcg peptide plus conjugate i.p. five days per week for three weeks, normal 0.22, gene deletion 0.12): 0.18

Substance: AALSLEEPAALAP (Synthetic control peptide) [control peptide for HBD-peptide, reference compound]
calcein incorporated area of metacarpals [1]: no effect | width (and length) of metacarpals [1]: comparable to the metacarpals treated with PBS | PTEN expression [7]: no effect on PTEN expression | mineralization of Igfbp2−/− COBs (Alizarin Red) compared to PBS [3]: did not enhance mineralization
